Results reported in patent US20120244567A1, “HUMAN EMBRYONIC STEM CELLS FOR HIGH THROUGHOUT DRUG SCREENING” (BUCK INSTITUTE FOR RESEARCH ON AGING, priority 2009, published 2012).
Where a name gives a salt, the structure may show the parent alone.

Test system: NSCs
Conditions: enriched in treated NSCs
Experimental: RNAs isolated from NSCs and neurons with and without drug treatments were hybridized to Illumina HumanRef-8 BeadChip (Illumina, Inc., San Diego, Calif., performed by Microarray core facility at the Burnham Institute for Medical Research). The Illumina array data were normalized by the quantile method, and then transformed log 2 ratio values for a zero mean for expression values of each gene across all samples. The statistical and bioinformatics analyses were conducted by using R and the bioconductor package (www.bioconductor.org). The gene set enrichment analysis was conducted using the GSEA software (www.broad.mit.edu/gsea).
The comparative results are then measured by a non-parametric, running sum statistic termed the enrichment score. The enrichment score significance is assessed by 1,000 permutation tests to compute the enrichment p-value.

CCCCc1oc2ccccc2c1C(=O)c1cc(I)c(OCCN(CC)CC)c(I)c1 [Amiodarone Hydrochloride]
Nes: Endopeptidase Activity: 1.466 | Nes: Enzyme Binding: 0.9684 | Nes: Enzyme Inhibitor Activity: 1.362 | Nes: Enzyme Regulator Activity: 1.305 | Nes: Exonuclease Activity: 1.423 | Nes: Gated Channel Activity: 0.8726 | Nes: General Rna Polymerase Ii Transcription Factor Activity: 0.772 | Nes: Growth Factor Binding: 1.135 | Nes: Gtpase Activator Activity: 1.186 | Nes: Gtpase Binding: 0.9586 | Nes: Gtpase Regulator Activity: 1.412 | Nes: Guanyl Nucleotide Exchange Factor Activity: 1.287 | Nes: Hematopoietin Interferon Class D200 Domain Cytokine Receptor Activity: 0.7947 | Nes: Hormone Receptor Binding: 0.621 | Nes: Hydro Lyase Activity: 0.5564 | Nes: Hydrolase Activity Acting On Ester Bonds: 1.181 | Nes: Hydrolase Activity Acting On Glycosyl Bonds: 1.049 | Nes: Hydrolase Activity Hydrolyzing O Glycosyl Compounds: 1.219 | Nes: Inorganic Cation Transmembrane Transporter Activity: 0.6802 | Nes: Ion Channel Activity: 1.255 | Nes: Ion Transmembrane Transporter Activity: 1.185 | Nes: Isomerase Activity: 1.154 | Nes: Kinase Binding: 0.6301 | Nes: Ligase Activity: 0.4673 | Nes: Ligase Activity Forming Carbon Nitrogen Bonds: 0.6937 | Nes: Lyase Activity: 1.018 | Nes: Metal Ion Transmembrane Transporter Activity: 1.036 | Nes: Methyltransferase Activity: 0.9044 | Nes: Molecular Adaptor Activity: 1.189 | Nes: Monovalent Inorganic Cation Transmembrane Transporter Activity: 0.7857 | Nes: Motor Activity: 1.105 | Nes: Mrna Binding: 1.006 | Nes: Nuclease Activity: 0.9393 | Nes: Nucleotide Binding: 0.8932 | Nes: Oxidoreductase Activity: 0.9865 | Nes: Oxidoreductase Activity Acting On Ch Oh Group Of Donors: 0.8656 | Nes: Oxidoreductase Activity Go 0016705: 1.545 | Nes: Peptidase Activity: 1.4 | Nes: Phosphatase Regulator Activity: 0.456 | Nes: Phosphoprotein Phosphatase Activity: 1.51 | Nes: Phosphoric Diester Hydrolase Activity: 1.244 | Nes: Phosphoric Ester Hydrolase Activity: 1.31 | Nes: Phosphoric Monoester Hydrolase Activity: 1.31 | Nes: Protease Inhibitor Activity: 1.558 | Nes: Protein C Terminus Binding: 0.6675 | Nes: Protein Complex Binding: 1.312 | Nes: Protein Domain Specific Binding: 0.8643 | Nes: Protein Kinase Activity: 0.8772 | Nes: Protein Kinase Binding: 0.7501 | Nes: Protein Serine Threonine Kinase Activity: 0.8269 | Nes: Protein Serine Threonine Phosphatase Activity: 0.4942 | Nes: Protein Tyrosine Kinase Activity: 0.7818 | Nes: Protein Tyrosine Phosphatase Activity: 1.461 | Nes: Purine Nucleotide Binding: 0.8873 | Nes: Purine Ribonucleotide Binding: 0.9034 | Nes: Ras Gtpase Activator Activity: 0.9812 | Nes: Receptor Signaling Protein Activity: 0.7803 | Nes: Rho Gtpase Activator Activity: 0.9664 | Nes: Ribonuclease Activity: 0.4876 | Nes: Rna Splicing Factor Activity Transesterification Mechanism: 0.9542 | Nes: S Adenosylmethionine Dependent Methyltransferase Activity: 0.9978 | Nes: Secondary Active Transmembrane Transporter Activity: 1.221 | Nes: Sequence Specific Dna Binding: 0.8244 | Nes: Serine Hydrolase Activity: 1.672 | Nes: Serine Type Peptidase Activity: 1.65 | Nes: Sh3 Sh2 Adaptor Activity: 1.235 | Nes: Single Stranded Dna Binding: 0.9015 | Nes: Small Conjugating Protein Ligase Activity: 0.717 | Nes: Small Gtpase Binding: 0.9179 | Nes: Small Gtpase Regulator Activity: 1.109 | Nes: Small Protein Conjugating Enzyme Activity: 0.7314 | Nes: Specific Rna Polymerase Ii Transcription Factor Activity: 1.539 | Nes: Structural Constituent Of Cytoskeleton: 1.041 | Nes: Structural Constituent Of Muscle: 1.106 | Nes: Structural Molecule Activity: 0.7432 | Nes: Structure Specific Dna Binding: 0.7614 | Nes: Substrate Specific Channel Activity: 1.3 | Nes: Substrate Specific Transmembrane Transporter Activity: 1.04 | Nes: Substrate Specific Transporter Activity: 0.9263 | Nes: Transcription Activator Activity: 0.7812 | Nes: Transcription Coactivator Activity: 0.5439 | Nes: Transcription Cofactor Activity: 1.217 | Nes: Transcription Corepressor Activity: 1.692 | Nes: Transcription Factor Activity: 1.217 | Nes: Transcription Factor Binding: 1.248 | Nes: Transcription Repressor Activity: 1.653 | Nes: Transferase Activity Transferring Alkyl Or Aryl Other Than Methyl Groups: 0.6606 | Nes: Transferase Activity Transferring Glycosyl Groups: 0.6701 | Nes: Transferase Activity Transferring Groups Other Than Amino Acyl Groups: 0.6753 | Nes: Transferase Activity Transferring One Carbon Groups: 0.7951 | Nes: Transferase Activity Transferring Sulfur Containing Groups: 0.8435 | Nes: Transition Metal Ion Binding: 1.037 | Nes: Translation Factor Activity Nucleic Acid Binding: 0.81 | Nes: Translation Initiation Factor Activity: 0.4449 | Nes: Translation Regulator Activity: 0.9216 | Nes: Transmembrane Receptor Protein Kinase Activity: 0.7564 | Nes: Transmembrane Receptor Protein Tyrosine Kinase Activity: 0.9533 | Nes: Transmembrane Transporter Activity: 1.011 | Nes: Ubiquitin Protein Ligase Activity: 0.7536 | Nes: Zinc Ion Binding: 0.9797
